Data as given in US11186587B2, “Compound as ACC inhibitor and use thereof” (NANJING SANHOME PHARMACEUTICAL CO., LTD., priority 2017, dated 2021).
Read-outs that look alike come from different tables or passages of the source.

Tests used:
ACC1 = ACC1 (Homo sapiens (Human), UniProt Q13085); assay: ACC1 enzyme activity assay (ADP-Glo); type: biochemical; conditions: ACC1 enzyme 2 nM working solution, room temperature
Description: (§1) Compound preparation: the compounds of the present disclosure prepared in the above examples and the control compound were respectively formulated into 10 mM with DMSO for use.
(§2) Preparation of 1× reaction buffer (pH=7.4): HEPES stock solutions (1 M), MgCl2 (1 M), BRIJ-35 (10%), potassium citrate buffer (1 M), BSA (10 mg/mL) and DTT (500 mM) were formulated to enzyme reaction buffer containing HEPES (50 mM), MgCl2 (2 mM), BRIJ-35 (0.01%), potassium citrate buffer (2 mM), BSA (50 Gg/mL) and DTT (2 mM).
4.5 μL of 2.2×ACC1 enzyme (2 nM) working solution was added to a 384-well plate; and then 0.5 μL of different concentrations of compound were added. The mixture was incubated at room temperature for 15 min.
(§3) Negative control group: menstruum containing 5% DMSO; positive control group: menstruum containing 100 nM ND-630. The average values of each concentration and the positive and negative controls were calculated, and the standard deviation was calculated. […] The inhibition rate data was fitted by nonlinear regression equation to calculate IC50 of each compound. The nonlinear regression equation was Y=lowest value+(highest value−lowest value)/(1+10^((Log IC50−X)×HillSlope)), among which X is logarithm of the compound concentration and Y is inhibition percent (%).

ACC2 = ACC2 (Homo sapiens (Human), UniProt O00763); assay: ACC2 enzyme activity assay (ADP-Glo); type: biochemical; conditions: ACC2 enzyme 1.1 nM working solution, room temperature
Description: as §1, §2
The mixture was incubated at room temperature for 15 min.
as §3

[1] = Evaluation of compound distribution in rat liver; type: in vivo; conditions: male SD rats, single oral 3 mg/kg, 0.25 h after administration
Description: An acclimation period of 2-3 days was given before the experiments. The rats were fasted for 8-12 h before administration, supplied with water 2 h after administration and foods 4 h after administration.
6 mg of the test compound (based on free base) was weighed and added to 20 mL of ethanol-PEG400-saline (10:30:60). The mixture was vortexed for 2 min, and sonicated for 3 min, and then used to prepare a solution of test sample solution with a concentration of 0.3 mg/mL for oral administration. 100 μL of the test sample solution was volumed to 10 ng/mL with methanol, and a control sample of the same concentration was prepared. The concentrations of the test sample and control sample were detected by HPLC, and the accuracy was calculated.
SD rats were given a single oral administration of 3 mg/kg of test compound at a dose of 10 mL/kg. The rats were bled in femoral artery and ruptured in neck 0.25 h after administration. The liver and blood samples (anticoagulation with heparin sodium) were collected immediately, and placed on ice.
The homogenate was centrifuged (centrifugation conditions: 8000 rpm/min, 5 min, 4° C.). The supernatant was transferred and subjected to cryopreservation. The supernatant was thawed and centrifuged before injection, and the supernatant was collected and subjected to LC-MS/MS for analyzing the content of the compound in the supernatant sample.
The collected whole blood sample was placed on ice and centrifuged within 30 min (centrifugation conditions: 8000 rpm/min, 5 min, 4° C.). 100 μL of the upper layer of plasma was transferred, and precipitated with 300 μL of methanol. The mixture was shaken and centrifuged, and diluted with mobile phase. The supernatant was collected and subjected to LC-MS/MS for analyzing the content of the compound in the supernatant sample.

[2] = test system: Col1A1 gene expression in TGF-β1-induced LX-2 cells; assay: Inhibition of human hepatic stellate cells LX-2 activation in vitro (Col1A1 gene expression, real-time PCR); type: cell-based; conditions: TGFβ1 10 ng/mL, 24 h drug treatment, compound concentration of the tabulated value not stated (30, 10, 3 μM prepared)
Description: The compounds of the present disclosure prepared in the above examples and the control compound were respectively formulated into 60 mM with DMSO for use.
DMSO stock solution of the compounds of the examples of the present disclosure and the control compound were sequentially diluted with culture medium to 30 μM, 10 μM, and 3 μM. TGF-β1 was dissolved to […] with 10 mM citric acid buffer in the kit (PeproTech) according to the instructions, ready for use.
LX-2 cells were inoculated into a 6-well culture plate at a density of 2×10^5 cells/mL after cell passage. Each well contained 2 mL DMEM with 10% FBS. The cells were cultured at 37° C. in a 5% CO2 incubator, which was recorded as Day 1. After 24 h (Day 2), the cell confluence reached 70-80%, the old culture medium was discarded, and the serum-free DMEM was used to treat the cells as low serum starvation. The old culture medium was discarded at Day 3, and the culture medium or the culture medium containing different concentrations of the drug was added for continuing culture. There were control group (serum-free DMEM culture medium), TGFβ1 group, TGFβ1+ compound group. The TGFβ1 working concentration was 10 ng/mL. 24 h after the drug treatment (Day 4), the cell medium was discarded and the cells were washed once with precooled 1×PBS and then subjected to total RNA extraction.
2.3.1 Sample pretreatment: 1 mL of TransZOL Up reagent was added to each well of the 6-well plate, and the well plate was placed horizontally for a while to let the lysis buffer evenly spread on the cell surface and lyse the cells. The cells were blown with a pipette to make the cells completely detached. The lysate was transferred to a 2 mL RNase free centrifuge tube and repeatedly blown and sucked until no significant pieces in the lysate.
The extracted RNA was diluted to a concentration of 0.1 μg-0.5 μg (Total RNA ≤1 μg) based on the same mass. The total RNA in the reverse transcription system of each sample in the experiment was about 500 ng.
Two replicates were set for each sample, and the relative expression of the target gene was calculated by the program in the PCR machine.
The threshold of the Real Time PCR result was automatically set by the Real Time PCR detector system. The relative expression of the Col1A1 gene was calculated as follows. ΔCt (Col1A1 in drug treatment group)=Avg. Ct (Col1A1 in drug treatment group)−Avg. Ct (GAPDH in drug treatment group) ΔCt (Col1A1 in TGF group)=Avg. Ct (Col1A1 in TGF group)−Avg. Ct (GAPDH in TGF group) ΔCt (Col1A1 in Control group)=Avg. Ct (Col1A1 in Control group)−Avg. Ct (GAPDH in Control group) ΔΔCt=Average value of ΔCt (Col1A1 in TGF group/drug treatment group)−ΔCt (Col1A1 in Control group)
Formula for calculating the relative expression of Col1A1 gene: RQ=^2−ΔΔCt
Relative quantification results were obtained by automatically analysis of ABI 7500 real-time quantitative PCR machine.

Sequence of ACC2 (O00763 whole entry): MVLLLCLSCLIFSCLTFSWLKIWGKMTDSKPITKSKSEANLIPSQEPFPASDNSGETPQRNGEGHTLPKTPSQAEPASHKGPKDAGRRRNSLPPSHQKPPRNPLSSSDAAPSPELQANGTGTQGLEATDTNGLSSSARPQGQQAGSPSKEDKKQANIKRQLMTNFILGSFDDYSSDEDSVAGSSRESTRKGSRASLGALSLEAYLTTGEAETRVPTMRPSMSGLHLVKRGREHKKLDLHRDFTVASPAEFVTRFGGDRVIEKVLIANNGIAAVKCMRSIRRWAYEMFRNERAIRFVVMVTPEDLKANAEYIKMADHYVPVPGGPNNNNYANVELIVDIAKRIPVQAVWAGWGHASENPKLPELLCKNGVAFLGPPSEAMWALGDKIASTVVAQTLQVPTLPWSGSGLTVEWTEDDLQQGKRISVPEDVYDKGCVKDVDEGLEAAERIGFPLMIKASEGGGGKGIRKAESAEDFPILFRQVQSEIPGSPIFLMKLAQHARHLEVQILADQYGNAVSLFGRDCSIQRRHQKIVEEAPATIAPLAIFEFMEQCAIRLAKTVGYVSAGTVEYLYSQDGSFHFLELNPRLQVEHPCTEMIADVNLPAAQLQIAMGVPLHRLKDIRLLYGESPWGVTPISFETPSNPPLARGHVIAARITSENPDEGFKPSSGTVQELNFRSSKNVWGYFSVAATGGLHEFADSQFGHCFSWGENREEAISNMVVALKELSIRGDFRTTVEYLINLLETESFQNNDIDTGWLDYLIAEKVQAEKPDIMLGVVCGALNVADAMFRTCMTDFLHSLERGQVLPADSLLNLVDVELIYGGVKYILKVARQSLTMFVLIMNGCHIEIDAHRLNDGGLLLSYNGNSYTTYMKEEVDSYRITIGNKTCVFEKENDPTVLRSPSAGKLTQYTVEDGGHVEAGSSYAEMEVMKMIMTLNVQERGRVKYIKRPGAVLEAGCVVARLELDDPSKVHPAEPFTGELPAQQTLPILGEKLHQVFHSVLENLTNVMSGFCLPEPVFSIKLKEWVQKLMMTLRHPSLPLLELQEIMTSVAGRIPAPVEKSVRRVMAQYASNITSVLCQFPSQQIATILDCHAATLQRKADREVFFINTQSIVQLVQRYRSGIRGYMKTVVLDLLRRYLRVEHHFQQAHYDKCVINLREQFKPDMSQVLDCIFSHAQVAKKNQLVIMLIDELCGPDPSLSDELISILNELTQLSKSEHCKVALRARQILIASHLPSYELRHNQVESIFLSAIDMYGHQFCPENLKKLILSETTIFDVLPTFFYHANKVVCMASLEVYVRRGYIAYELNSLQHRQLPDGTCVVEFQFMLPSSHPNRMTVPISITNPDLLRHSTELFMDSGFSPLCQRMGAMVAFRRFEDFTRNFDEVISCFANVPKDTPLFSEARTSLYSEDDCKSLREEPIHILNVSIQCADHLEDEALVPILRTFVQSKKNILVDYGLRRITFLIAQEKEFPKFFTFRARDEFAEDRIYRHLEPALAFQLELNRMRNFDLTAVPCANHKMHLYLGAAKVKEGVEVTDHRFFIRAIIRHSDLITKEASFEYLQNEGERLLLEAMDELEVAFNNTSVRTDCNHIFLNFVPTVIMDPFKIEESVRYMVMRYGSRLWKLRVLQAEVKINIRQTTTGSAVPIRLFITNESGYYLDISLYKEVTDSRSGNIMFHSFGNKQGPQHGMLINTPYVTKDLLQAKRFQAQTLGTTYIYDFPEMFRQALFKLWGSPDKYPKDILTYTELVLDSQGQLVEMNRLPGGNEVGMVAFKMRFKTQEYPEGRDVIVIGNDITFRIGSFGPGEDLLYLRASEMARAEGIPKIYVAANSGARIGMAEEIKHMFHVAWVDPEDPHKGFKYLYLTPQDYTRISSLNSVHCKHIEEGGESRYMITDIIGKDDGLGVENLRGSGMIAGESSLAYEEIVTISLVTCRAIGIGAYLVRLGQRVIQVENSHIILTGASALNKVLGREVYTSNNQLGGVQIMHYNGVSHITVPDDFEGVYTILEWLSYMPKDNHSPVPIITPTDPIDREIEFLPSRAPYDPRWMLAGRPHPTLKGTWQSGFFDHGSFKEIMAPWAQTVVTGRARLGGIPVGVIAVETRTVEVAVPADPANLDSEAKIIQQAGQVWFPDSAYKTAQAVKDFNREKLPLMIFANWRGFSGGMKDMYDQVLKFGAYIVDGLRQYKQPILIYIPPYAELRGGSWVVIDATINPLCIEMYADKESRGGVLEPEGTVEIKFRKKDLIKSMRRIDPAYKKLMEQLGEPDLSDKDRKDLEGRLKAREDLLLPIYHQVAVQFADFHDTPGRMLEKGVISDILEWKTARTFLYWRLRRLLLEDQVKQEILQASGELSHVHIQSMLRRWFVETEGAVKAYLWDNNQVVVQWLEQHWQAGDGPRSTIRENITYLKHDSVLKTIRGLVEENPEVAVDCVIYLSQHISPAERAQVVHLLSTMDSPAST

Structure (SMILES): COc1ccccc1[C@H](Cn1c(=O)n(C(C)(C)C(=O)O)c(=O)c2c(C)c(-c3ncco3)sc21)OC1CCOCC1 [ND-630, 2-[1-[2-(2-methoxyphenyl)-2-(oxecyclo-4-yloxy)ethyl]-5-methyl-6-(1,3-oxazol-2-yl)-2,4-dioxo-1H,2H,3H,4H-thieno[2,3-d]pyrimidin-3-yl]-2-methylpropanoic acid, reference compound]
- IC50 (ACC1): 0.5 nM
- IC50 (ACC2): 3.56 nM
- concentration at 0.25 h ([1]; liver, read-out: Concentration in Liver): 6070 ng/g
- Kp at 0.25 h ([1]; liver/plasma, read-out: Liver/plasma distribution ratio): 41.8
- concentration at 0.25 h ([1]; plasma, read-out: Concentration in Plasma): 145 ng/mL
- Inhibition rate (%) of relative expression of the Col1A1 gene [2]: 42.06%
